# Assay results taken from patent publication US9493455B2, “Azaindole derivatives as inhibitors of protein kinases” (ORIBASE PHARMA, priority 2012, dated 2016).
# Assays:
# BxPC-3 cells = experiment: Xenograft mouse model, human pancreatic adenocarcinoma; format: in vivo, mice
# Experimental: (§1) Several xenograft mouse models were prepared: • 1) imatinib-resistant leukemia by subcutaneously implanting Ba/F3 T315I cells (1×10^8 cell/mL in sterile PBS), into the right flank of athymic nude male mice (HSD, 6-7 weeks old). When the tumor volume reached approximately 50 mm^3, mice were assigned randomly to either vehicle alone or OR0512 treatment groups (five mice per group). Mice were treated with either vehicle (DMSO) or OR0512 (40 mg/kg q.d.; per os for 11 consecutive days). • 2) human pancreatic adenocarcinoma model by subcutaneously implanting BxPC-3 cells (1×10^7 cell/mL in sterile PBS), into the right flank of athymic nude male mice (HSD, 6-7 weeks old). […]
# (§2) Tumor volumes in mm^3 were determined three times a week with a digital caliper and calculated using the following formula: Tumor Volume (mm^3)=length (mm)×width (mm)×width (mm)×½. Body weight was measured three times a week, and mice were observed daily for monitoring signs of stress to detect possible toxicities. […] Data were analyzed with Prism 5.0b (GraphPad Software) by one-way ANOVA with Bonferroni post hoc. Tumor Growth Inibition (TGI) is calculated as the percent decrease of tumor growth at the end of the study in the OR0512 treatment group in comparison to the vehicle alone treatment group.
# Ba/F3 T315I cells = experiment: Xenograft mouse model, imatinib-resistant leukemia (CML); format: in vivo, mice
# Experimental: as §1, §2
# H1975 cells = experiment: Xenograft mouse model, human NSCLC with EGFR mutations; format: in vivo, mice
# Experimental: as §1, §2
# HepG2 cells = experiment: Xenograft mouse model, human hepatocellular carcinoma; format: in vivo, mice
# Experimental: as §1, §2
# BMX = target: T1, BMX (Homo sapiens, UniProt P51813); experiment: In vitro kinase assay (Z′-LYTE); format: biochemical; settings: read-out: percent inhibition of the kinase compared to the control
# T1 construct: purchased Invitrogen
# How it was run: (§3)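 Read-out is a ratiometric FRET signal (donor/acceptor emission, 400 nm excitation) from a doubly labelled peptide, whose cleavage by a development protease depends on its phosphorylation state. ATP used at apparent Km in HEPES pH 7.5 buffer with MgCl2; compounds at 100 nM, or 10 μM for ABL T315I.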
# PDGFRB = target: T2, PDGFRB (Homo sapiens, UniProt P09619); experiment: In vitro kinase assay (Z′-LYTE); format: biochemical; settings: read-out: % of inhibition of the kinase compared to the control
# T2 construct: purchased Invitrogen
# How it was run: as §3
# EGFR (ErbB1) T790M L858R = target: T3, EGFR (ErbB1) T790M L858R (Homo sapiens, UniProt P00533, L858R/T790M); experiment: In vitro kinase assay (Z′-LYTE); format: biochemical; settings: read-out: % of inhibition of the kinase compared to the control
# T3 construct: purchased Invitrogen
# How it was run: as §3
# FGR = target: T4, FGR (Homo sapiens, UniProt P09769); experiment: In vitro kinase assay (Z′-LYTE); format: biochemical; settings: read-out: percent inhibition of the kinase compared to the control
# T4 construct: purchased Invitrogen
# How it was run: as §3
# ABL = target: T5, ABL (Homo sapiens, UniProt P00519); experiment: In vitro kinase assay (Z′-LYTE); format: biochemical; settings: read-out: % of inhibition of the kinase compared to the control
# T5 construct: purchased Invitrogen
# BLK = target: T6, BLK (Homo sapiens, UniProt P51451); experiment: In vitro kinase assay (Z′-LYTE); format: biochemical; settings: read-out: percent inhibition of the kinase compared to the control
# T6 construct: purchased Invitrogen
# How it was run: as §3
# KDR (VEGFR2) = target: T7, KDR (VEGFR2) (Homo sapiens, UniProt P35968); experiment: In vitro kinase assay (Z′-LYTE); format: biochemical; settings: read-out: % of inhibition of the kinase compared to the control
# T7 construct: purchased Invitrogen
# How it was run: as §3
# ABL Y253F = target: T8, ABL Y253F (Homo sapiens, UniProt P00519, Y253F); experiment: In vitro kinase assay (Z′-LYTE); format: biochemical; settings: read-out: percent inhibition of the kinase compared to the control
# T8 construct: purchased Invitrogen
# How it was run: as §3
# LCK = target: T9, LCK (Homo sapiens, UniProt P06239); experiment: In vitro kinase assay (Z′-LYTE); format: biochemical; settings: read-out: percent inhibition of the kinase compared to the control
# T9 construct: purchased Invitrogen
# How it was run: as §3
# FGFR2 = target: T10, FGFR2 (Homo sapiens, UniProt P21802); experiment: In vitro kinase assay (Z′-LYTE); format: biochemical; settings: read-out: % of inhibition of the kinase compared to the control
# T10 construct: purchased Invitrogen
# How it was run: as §3
# FMS = target: T11, FMS (Homo sapiens, UniProt P07333); experiment: In vitro kinase assay (Z′-LYTE); format: biochemical; settings: read-out: percent inhibition of the kinase compared to the control
# T11 construct: purchased Invitrogen
# How it was run: as §3
# VEGFR3 = target: T12, VEGFR3 (Homo sapiens, UniProt P35916); experiment: In vitro kinase assay (Z′-LYTE); format: biochemical; settings: read-out: percent inhibition of the kinase compared to the control
# T12 construct: purchased Invitrogen
# How it was run: as §3
# T1 sequence (P51813 whole entry): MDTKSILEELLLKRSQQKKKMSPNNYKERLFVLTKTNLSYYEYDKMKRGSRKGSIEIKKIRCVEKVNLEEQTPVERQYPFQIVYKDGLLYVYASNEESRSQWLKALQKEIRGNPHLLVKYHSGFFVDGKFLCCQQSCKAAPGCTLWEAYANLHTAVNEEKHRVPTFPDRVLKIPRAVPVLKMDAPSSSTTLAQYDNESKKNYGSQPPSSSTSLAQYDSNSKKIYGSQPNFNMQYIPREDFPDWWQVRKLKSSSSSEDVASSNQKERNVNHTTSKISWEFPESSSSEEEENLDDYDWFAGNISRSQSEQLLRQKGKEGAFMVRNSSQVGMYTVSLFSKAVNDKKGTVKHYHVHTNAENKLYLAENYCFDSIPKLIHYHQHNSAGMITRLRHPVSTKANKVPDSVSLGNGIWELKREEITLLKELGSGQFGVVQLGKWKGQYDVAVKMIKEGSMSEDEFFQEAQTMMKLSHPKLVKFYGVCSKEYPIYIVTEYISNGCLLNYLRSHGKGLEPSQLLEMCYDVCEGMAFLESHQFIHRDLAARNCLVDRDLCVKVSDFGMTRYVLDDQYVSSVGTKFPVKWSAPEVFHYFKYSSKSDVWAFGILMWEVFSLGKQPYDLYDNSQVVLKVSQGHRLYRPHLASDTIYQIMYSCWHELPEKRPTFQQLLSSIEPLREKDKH
# T2 sequence (P09619 33-1106): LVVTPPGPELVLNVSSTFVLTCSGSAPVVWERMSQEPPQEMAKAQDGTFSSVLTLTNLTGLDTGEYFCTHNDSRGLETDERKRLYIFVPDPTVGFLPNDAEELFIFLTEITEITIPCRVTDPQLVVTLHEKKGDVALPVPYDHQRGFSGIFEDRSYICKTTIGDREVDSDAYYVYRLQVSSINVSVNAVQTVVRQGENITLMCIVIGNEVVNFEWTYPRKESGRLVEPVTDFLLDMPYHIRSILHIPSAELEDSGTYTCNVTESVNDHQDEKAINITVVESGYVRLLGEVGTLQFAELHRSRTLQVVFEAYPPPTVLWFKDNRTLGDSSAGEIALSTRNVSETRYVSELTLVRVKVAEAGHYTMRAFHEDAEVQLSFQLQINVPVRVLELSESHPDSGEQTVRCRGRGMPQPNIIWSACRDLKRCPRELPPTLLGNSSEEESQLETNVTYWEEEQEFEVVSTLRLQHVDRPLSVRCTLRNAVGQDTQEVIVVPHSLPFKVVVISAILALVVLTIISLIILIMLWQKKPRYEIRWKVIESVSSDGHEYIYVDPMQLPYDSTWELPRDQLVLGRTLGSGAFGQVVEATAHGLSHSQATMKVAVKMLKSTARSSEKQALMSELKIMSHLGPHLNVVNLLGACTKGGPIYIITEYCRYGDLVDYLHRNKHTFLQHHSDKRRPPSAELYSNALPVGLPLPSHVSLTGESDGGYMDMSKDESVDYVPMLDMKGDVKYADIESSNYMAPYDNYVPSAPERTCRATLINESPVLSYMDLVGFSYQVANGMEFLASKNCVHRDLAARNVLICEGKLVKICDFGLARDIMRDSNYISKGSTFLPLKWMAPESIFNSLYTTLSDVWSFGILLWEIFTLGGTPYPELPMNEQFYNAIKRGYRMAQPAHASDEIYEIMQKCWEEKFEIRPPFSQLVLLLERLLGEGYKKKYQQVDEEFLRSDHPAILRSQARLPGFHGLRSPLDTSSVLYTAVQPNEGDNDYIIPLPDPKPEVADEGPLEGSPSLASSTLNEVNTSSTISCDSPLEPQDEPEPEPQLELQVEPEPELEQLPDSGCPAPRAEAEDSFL
# T6 sequence (P51451 whole entry): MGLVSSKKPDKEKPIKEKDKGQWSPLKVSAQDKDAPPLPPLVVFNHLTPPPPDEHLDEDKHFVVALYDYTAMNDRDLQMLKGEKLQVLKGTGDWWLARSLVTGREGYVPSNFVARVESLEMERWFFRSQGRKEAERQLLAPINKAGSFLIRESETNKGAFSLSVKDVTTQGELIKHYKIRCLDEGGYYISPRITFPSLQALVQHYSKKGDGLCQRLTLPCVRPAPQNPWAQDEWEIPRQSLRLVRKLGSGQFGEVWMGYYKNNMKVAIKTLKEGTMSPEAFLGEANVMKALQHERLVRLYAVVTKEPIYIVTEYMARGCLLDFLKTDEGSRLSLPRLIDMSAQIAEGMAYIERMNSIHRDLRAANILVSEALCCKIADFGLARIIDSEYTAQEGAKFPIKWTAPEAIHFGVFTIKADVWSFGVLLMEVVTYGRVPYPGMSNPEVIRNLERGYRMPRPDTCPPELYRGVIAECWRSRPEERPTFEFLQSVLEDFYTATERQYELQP
# T12 sequence (P35916 25-1363): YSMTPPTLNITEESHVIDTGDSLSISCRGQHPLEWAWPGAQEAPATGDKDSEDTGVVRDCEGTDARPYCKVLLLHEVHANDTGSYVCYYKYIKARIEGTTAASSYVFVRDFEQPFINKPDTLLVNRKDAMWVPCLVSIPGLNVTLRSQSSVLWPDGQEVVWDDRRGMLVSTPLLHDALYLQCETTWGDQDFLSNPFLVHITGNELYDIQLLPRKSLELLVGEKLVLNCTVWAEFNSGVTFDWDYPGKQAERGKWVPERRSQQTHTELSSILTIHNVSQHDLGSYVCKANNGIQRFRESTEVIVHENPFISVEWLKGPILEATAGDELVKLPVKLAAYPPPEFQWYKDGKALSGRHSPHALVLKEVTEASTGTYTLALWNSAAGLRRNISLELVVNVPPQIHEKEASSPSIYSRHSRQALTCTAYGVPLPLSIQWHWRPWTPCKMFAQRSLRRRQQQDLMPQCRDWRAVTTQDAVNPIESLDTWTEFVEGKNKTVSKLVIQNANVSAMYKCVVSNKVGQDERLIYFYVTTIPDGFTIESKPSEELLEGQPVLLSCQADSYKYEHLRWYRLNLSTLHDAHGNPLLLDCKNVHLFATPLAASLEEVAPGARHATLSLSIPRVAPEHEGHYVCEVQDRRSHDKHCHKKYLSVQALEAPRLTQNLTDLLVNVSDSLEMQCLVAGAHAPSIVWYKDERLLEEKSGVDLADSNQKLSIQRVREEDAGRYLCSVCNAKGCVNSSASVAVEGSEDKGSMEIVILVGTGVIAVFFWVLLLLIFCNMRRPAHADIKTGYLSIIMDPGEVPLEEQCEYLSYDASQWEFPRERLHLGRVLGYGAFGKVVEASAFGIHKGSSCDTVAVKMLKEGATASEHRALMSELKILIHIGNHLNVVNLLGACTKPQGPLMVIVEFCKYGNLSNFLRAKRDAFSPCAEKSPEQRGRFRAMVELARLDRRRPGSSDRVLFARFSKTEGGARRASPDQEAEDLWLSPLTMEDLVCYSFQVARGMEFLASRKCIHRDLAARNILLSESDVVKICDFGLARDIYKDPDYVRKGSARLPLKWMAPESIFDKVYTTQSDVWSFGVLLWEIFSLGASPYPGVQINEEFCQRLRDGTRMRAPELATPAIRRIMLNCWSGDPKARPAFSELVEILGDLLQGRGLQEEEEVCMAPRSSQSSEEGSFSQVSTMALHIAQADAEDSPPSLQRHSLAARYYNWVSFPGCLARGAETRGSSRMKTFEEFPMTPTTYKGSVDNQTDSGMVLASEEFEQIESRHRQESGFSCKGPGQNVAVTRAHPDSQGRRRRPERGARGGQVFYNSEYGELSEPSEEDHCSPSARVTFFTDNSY
# T9 sequence (P06239 whole entry): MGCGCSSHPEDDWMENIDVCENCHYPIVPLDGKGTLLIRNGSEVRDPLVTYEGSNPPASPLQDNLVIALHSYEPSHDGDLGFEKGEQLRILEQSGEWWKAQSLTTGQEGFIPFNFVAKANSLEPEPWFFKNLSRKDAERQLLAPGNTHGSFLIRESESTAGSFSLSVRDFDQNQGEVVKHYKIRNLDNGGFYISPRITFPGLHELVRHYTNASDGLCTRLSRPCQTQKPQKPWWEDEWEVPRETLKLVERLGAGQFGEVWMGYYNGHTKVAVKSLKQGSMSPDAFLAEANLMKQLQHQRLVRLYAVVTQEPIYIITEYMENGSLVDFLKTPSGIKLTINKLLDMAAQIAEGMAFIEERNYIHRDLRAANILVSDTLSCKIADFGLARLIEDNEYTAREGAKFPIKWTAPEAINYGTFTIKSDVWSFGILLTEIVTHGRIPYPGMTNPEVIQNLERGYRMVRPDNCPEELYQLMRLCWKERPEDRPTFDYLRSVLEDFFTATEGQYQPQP
# T4 sequence (P09769 whole entry): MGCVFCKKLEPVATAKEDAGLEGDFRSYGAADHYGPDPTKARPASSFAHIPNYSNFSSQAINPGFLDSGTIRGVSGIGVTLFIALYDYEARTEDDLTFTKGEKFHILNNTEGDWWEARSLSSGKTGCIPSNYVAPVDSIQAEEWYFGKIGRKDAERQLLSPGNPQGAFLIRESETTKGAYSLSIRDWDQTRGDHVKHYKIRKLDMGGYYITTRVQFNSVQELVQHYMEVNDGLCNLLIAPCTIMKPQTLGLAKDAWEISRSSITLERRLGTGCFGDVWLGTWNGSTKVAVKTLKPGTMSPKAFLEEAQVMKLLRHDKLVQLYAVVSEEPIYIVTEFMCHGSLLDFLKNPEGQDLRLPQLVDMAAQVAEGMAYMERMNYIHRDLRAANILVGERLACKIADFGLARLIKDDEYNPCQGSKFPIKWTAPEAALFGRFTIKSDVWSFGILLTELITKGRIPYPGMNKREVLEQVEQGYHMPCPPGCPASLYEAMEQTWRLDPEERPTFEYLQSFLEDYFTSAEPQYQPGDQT
compound,measurement,setting,value
COC(=O)c1cc2cc(NCc3cc(NC(=O)c4ccc(CN5CCN(C)CC5)c(C(F)(F)F)c4)ccc3C)cnc2[nH]1 [OR0512],Tumor Growth Inhibition - TGI,"BxPC-3 cells; BxPC-3 xenograft, mice, 20 mg/kg q.d. per os, 32 days, versus vehicle, **P < 0.05",85%**
same,decrease of tumor growth (in words),"BxPC-3 cells; xenografted mice, human pancreatic adenocarcinoma model",significantly induced a decrease of tumor growth
same,Tumor Growth Inhibition - TGI,"Ba/F3 T315I cells; Ba/F3 T315I xenograft, mice, 40 mg/kg q.d. per os, 11 days, versus vehicle",37%
same,decrease of tumor growth (in words),"Ba/F3 T315I cells; xenografted mice, imatinib-resistant CML model expressing Bcr-Abl T315I",slight decrease of tumor growth
same,Tumor Growth Inhibition - TGI,"H1975 cells; H1975 xenograft, mice, 20 mg/kg q.d. per os, 22 days, versus vehicle, **P < 0.05",73%**
same,decrease of tumor growth (in words),"H1975 cells; xenografted mice, human NSCLC (mutated form of EGFR) model",significantly induced a decrease of tumor growth
same,Tumor Growth Inhibition - TGI,"HepG2 cells; HepG2 xenograft, mice, 20 mg/kg q.d. per os, 15 days, versus vehicle, **P < 0.05",69%**
same,decrease of tumor growth (in words),"HepG2 cells; xenografted mice, human hepatocellular carcinoma model",significantly induced a decrease of tumor growth
same,inhibition at 0.1 µM,BMX,> 50%
same,inhibition at 0.1 µM,PDGFRB,≥ 50%
same,inhibition at 0.1 µM,EGFR (ErbB1) T790M L858R,< 50%
same,inhibition at 0.1 µM,FGR,> 50%
same,inhibition at 10 µM,ABL,≥ 50%
same,inhibition at 0.1 µM,BLK,> 50%
same,inhibition at 0.1 µM,KDR (VEGFR2),≥ 50%
same,inhibition at 0.1 µM,ABL Y253F,> 50%
same,inhibition at 0.1 µM,LCK,> 50%
same,inhibition at 0.1 µM,FGFR2,≥ 50%
same,inhibition at 0.1 µM,FMS,> 50%
same,inhibition at 0.1 µM,VEGFR3,> 50%
